The results in this text go back to US9890117B2, “Benzamide compounds and related methods of use” (Northwestern University, priority 2012, dated 2018).

The nature of data set [1]: Microsomal stability screen, human. The settings on record: 1 μM.
Data set [2] in a line: Microsomal stability screen, mouse. The settings on record: 1 μM.
Data set [3] has as its target T1, SIRT2 (Homo sapiens, UniProt Q8IXJ6).
T1 construct: recombinant active enzymes SIRT1, SIRT2, and the catalytically active fragment of SIRT3
T1 sequence (Q8IXJ6 1-389): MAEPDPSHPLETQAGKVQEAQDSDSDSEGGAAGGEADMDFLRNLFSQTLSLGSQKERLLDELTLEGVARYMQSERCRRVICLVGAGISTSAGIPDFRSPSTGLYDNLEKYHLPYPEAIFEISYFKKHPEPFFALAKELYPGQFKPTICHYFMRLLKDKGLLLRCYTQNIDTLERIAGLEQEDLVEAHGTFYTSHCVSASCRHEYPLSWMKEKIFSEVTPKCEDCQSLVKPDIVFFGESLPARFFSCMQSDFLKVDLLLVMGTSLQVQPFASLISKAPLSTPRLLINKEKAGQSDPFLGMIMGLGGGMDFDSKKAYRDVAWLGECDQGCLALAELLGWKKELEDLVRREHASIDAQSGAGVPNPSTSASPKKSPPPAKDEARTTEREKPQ
In words: Fluor-de-Lys biochemical sirtuin deacetylation assay, SIRT2. To be noted: 10 μM.

As for `CN(c1ccc(F)cc1)S(=O)(=O)c1cccc(C(=O)Nc2ccc(C#N)cc2)c1` [Compound 47, N-(4-Cyanophenyl)-3-(N-(4-fluorophenyl)-N-methylsulfamoyl)benzamide], in data set [1], the “Mean remaining parent NADPH-free (%)” value is 89% and the “Mean remaining parent with NADPH (%)” value was 16%.
With `CN(c1ccc(Cl)cc1)S(=O)(=O)c1cccc(C(=O)Nc2ccc(C#N)cn2)c1` [Compound 71, 3-(N-(4-Chlorophenyl)-N-methylsulfamoyl)-N-(5-cyanopyridin-2-yl)benzamide], in data set [2], the “Mean remaining parent NADPH-free (%)” value is given as 96% and the “Mean remaining parent with NADPH (%)” value is on record as 1%. Besides, in data set [1], the “Mean remaining parent NADPH-free (%)” value is 91% and the “Mean remaining parent with NADPH (%)” value is 2%.
In the case of `CC(=O)c1ccc(N(C)S(=O)(=O)c2cccc(C(=O)Nc3ccc(Cl)cc3)c2)cc1` [Compound 102, 3-(N-(4-Acetylphenyl)-N-methylsulfamoyl)-N-(4-chlorophenyl)benzamide], in data set [2], the “Mean remaining parent NADPH-free (%)” value was 108% and the “Mean remaining parent with NADPH (%)” value was found to be 0%. Further, in data set [1], the “Mean remaining parent NADPH-free (%)” value is 94% and the “Mean remaining parent with NADPH (%)” value is on record as 12%.
The inhibition is the share of the control response that was lost under treatment. The low end stands for little suppression, the high end for strong suppression. A word on the melting point: it is the temperature of the solid-liquid transition. Turning to `N#Cc1ccc(NC(=O)c2cccc(SCc3ccc(F)cc3)c2)cc1` [Compound 211g, N-(4-cyanophenyl)-3-((4-fluorobenzyl)thio)benzamide], the melting point was in the range of 148 to 150 °C. In data set [3], this compound returned an inhibition at 10 µM of 59%.
The like results for `N#Cc1ccc(NC(=O)c2cccc(OCc3cccc(F)c3F)c2)cc1` [Compound 216Aa, N-(4-cyanophenyl)-3-((2,3-difluorobenzyl)oxy)benzamide] were, in that order, 149 to 150 °C and 56%.
For `CC(=O)c1ccc(C(C)Oc2cncc(C(=O)Nc3ccc(C#N)cc3)c2)cc1` (centres unmarked) [Compound 216Ab, 5-(1-(4-acetylphenyl)ethoxy)-N-(4-cyanophenyl)nicotinamide], the melting point was 181 to 183 °C. Further, at 10 µM the inhibition in data set [3] was 84%.
As for `CC(=O)c1ccc(C(C)Oc2cccc(C(=O)Nc3ccc(C#N)cc3)c2)cc1` (centres unmarked) [Compound 216Ac, 3-(1-(4-acetylphenyl)ethoxy)-N-(4-cyanophenyl)benzamide], the melting point lay within 79 to 81 °C. This compound showed an inhibition at 10 µM in data set [3] of 93%.
In turn, `N#Cc1ccc(NC(=O)c2cccc(OCc3cccc(F)c3)c2)cc1` [Compound 216Ad, N-(4-cyanophenyl)-3-((3-fluorobenzyl)oxy)benzamide] showed a melting point of 142 to 143 °C. For the same compound, at 10 µM the inhibition in data set [3] was 58%.
`N#Cc1ccc(NC(=O)c2cccc(OCc3cc(F)cc(F)c3)c2)cc1` [Compound 216Ae, N-(4-cyanophenyl)-3-((3,5-difluorobenzyl)oxy)benzamide] showed a melting point of 185 to 187 °C. The compound also gave an inhibition at 10 µM in data set [3] of 57%.
The like results for `CC(O)c1ccc(C(C)Oc2cncc(C(=O)Nc3ccc(C#N)cc3)c2)cc1` (centres unmarked) [Compound 216Af, N-(4-cyanophenyl)-5-(1-(4-(1-hydroxyethyl)phenyl)ethoxy)nicotinamide] were, in that order, 179 to 181 °C and 12%.
The like results for `CSc1ccc(COc2cccc(C(=O)Nc3ccc(C#N)cc3)c2)cc1` [Compound 216a, N-(4-cyanophenyl)-3-((4-(methylthio)benzyl)oxy)benzamide] were, in that order, 147 to 148 °C and 60%.
The compound `CSc1ccc(COc2cccc(C(=O)Nc3ccc(C#N)cn3)c2)cc1` [Compound 216b, N-(5-cyanopyridin-2-yl)-3-((4-(methylthio)benzyl)oxy)benzamide] gave a melting point of 146 to 147 °C. This compound also had an inhibition at 10 µM in data set [3] of 22%.
In turn, `COc1ccc(COc2cccc(C(=O)Nc3ccc(C#N)cc3)c2)cc1` [Compound 216c, N-(4-cyanophenyl)-3-((4-methoxybenzyl)oxy)benzamide] registered a melting point of 147 to 148 °C. At 10 µM the inhibition in data set [3] was 40%.
The corresponding values for `COc1ccc(COc2cccc(C(=O)Nc3ccc(C#N)cn3)c2)cc1` [Compound 216d, N-(5-cyanopyridin-2-yl)-3-((4-methoxybenzyl)oxy)benzamide] are 132 to 134 °C and 8%.
The corresponding values for `C[S+]([O-])c1ccc(COc2cccc(C(=O)Nc3ccc(C#N)cc3)c2)cc1` (centres unmarked) [Compound 216e] are 174 to 175 °C and 32%.
The corresponding values for `COc1ccc(COc2cccc(C(=O)Nc3ccc(S(C)(=O)=O)cc3)c2)cc1` [Compound 216f, 3-((4-methoxybenzyl)oxy)-N-(4-(methylsulfonyl)phenyl)benzamide] are 173 to 174 °C and 36%.
`N#Cc1ccc(NC(=O)c2cccc(OCc3ccc(F)cc3)c2)cc1` [Compound 216g, N-(4-cyanophenyl)-3-((4-fluorobenzyl)oxy)benzamide] yielded a melting point of 149 to 150 °C. This compound gave an inhibition at 10 µM in data set [3] of 64%.
As to `COc1ccc(COc2cccc(C(=O)Nc3ccc([S+](C)[O-])cc3)c2)cc1` (centres unmarked) [Compound 216h, 3-((4-methoxybenzyl)oxy)-N-(4-(methylsulfinyl)phenyl)benzamide], the melting point was in the range of 135 to 136 °C. The compound also yielded an inhibition at 10 µM in data set [3] of 50%.
The corresponding values for `N#Cc1ccc(NC(=O)c2cccc(OCc3ccc(F)cc3)c2)nc1` [Compound 216i, N-(5-cyanopyridin-2-yl)-3-((4-fluorobenzyl)oxy)benzamide] are 170 to 171 °C and 15%.
The like results for `N#Cc1ccc(NC(=O)c2cccc(OCc3ccc(C(F)(F)F)cc3)c2)cc1` [Compound 216j, N-(4-cyanophenyl)-3-((4-(trifluoromethyl)benzyl)oxy)benzamide] were, in that order, 167 to 168 °C and 67%.
The compound `CS(=O)(=O)c1ccc(COc2cccc(C(=O)Nc3ccc(C#N)cc3)c2)cc1` [Compound 216k, N-(4-cyanophenyl)-3-((4-(methylsulfonyl)benzyl)oxy)benzamide] showed a melting point of 209 to 210 °C. Besides, in data set [3], at 10 µM the inhibition was 39%.
In turn, `N#Cc1ccc(NC(=O)c2cccc(OCc3ccc(OC(F)(F)F)cc3)c2)cc1` [Compound 216m, N-(4-cyanophenyl)-3-((4-(trifluoromethoxy)benzyl)oxy)benzamide] displayed a melting point of 138 to 139 °C. Also, the inhibition at 10 µM in data set [3] is 56%.
For `N#Cc1ccc(NC(=O)c2cccc(OCc3ccc(Cl)cn3)c2)cc1` [Compound 216n, 3-((5-chloropyridin-2-yl)methoxy)-N-(4-cyanophenyl)benzamide], the melting point fell in the range of 168 to 169 °C. In addition, in data set [3], testing at 10 µM gave an inhibition of 34%.
The corresponding values for `N#Cc1ccc(COc2cccc(C(=O)Nc3ccc(C#N)cc3)c2)cc1` [Compound 216q, 3-((4-cyanobenzyl)oxy)-N-(4-cyanophenyl)benzamide] are 205 to 207 °C and 56%.
As for `C[C@@H](Oc1cncc(C(=O)Nc2ccc(C#N)cc2)c1)c1ccc(F)cc1` [Compound 216r, (R)—N-(4-cyanophenyl)-5-(1-(4-fluorophenyl)ethoxy)nicotinamide], the melting point lay in the range of 151 to 152 °C. In addition, at 10 µM the inhibition in data set [3] was 69%.
The corresponding values for `C[C@H](Oc1cncc(C(=O)Nc2ccc(C#N)cc2)c1)c1ccc(F)cc1` [Compound 216s, (S)—N-(4-cyanophenyl)-5-(1-(4-fluorophenyl)ethoxy)nicotinamide] are 152 to 153 °C and 27%.
For the compound `N#Cc1ccc(COc2cncc(C(=O)Nc3ccc(C#N)cc3)c2)cc1` [Compound 216t, 5-((4-cyanobenzyl)oxy)-N-(4-cyanophenyl)nicotinamide], the melting point is 266 to 268 °C (dec.). In data set [3], this compound returned an inhibition at 10 µM of 0%.
Take `CC(=O)c1ccc(COc2cncc(C(=O)Nc3ccc(C#N)cc3)c2)cc1` [Compound 216u, 5-((4-acetylbenzyl)oxy)-N-(4-cyanophenyl)nicotinamide]: the melting point was 228 to 229 °C (dec.). In data set [3], this compound displayed an inhibition at 10 µM of 0%.
The like results for `N#Cc1ccc(COc2cc(O)cc(C(=O)Nc3ccc(C#N)cc3)c2)cc1` [Compound 216w, 3-((4-cyanobenzyl)oxy)-N-(4-cyanophenyl)-5-hydroxybenzamide] were, in that order, 199 to 201 °C and 15%.
The corresponding values for `N#Cc1ccc(NC(=O)c2cccc(OCc3ccc(F)c(F)c3)c2)cc1` [Compound 216z, N-(4-cyanophenyl)-3-((3,4-difluorobenzyl)oxy)benzamide] are 173 to 174 °C and 64%.
`N#Cc1ccc(NC(=O)c2cccc(NCc3ccc(F)cc3)c2)cc1` [Compound 221a, N-(4-cyanophenyl)-3-((4-fluorobenzyl)amino)benzamide] showed a melting point of 173 to 174 °C. For the same compound, in data set [3], the inhibition at 10 µM is 41%.
`CN(Cc1ccc(F)cc1)c1cccc(C(=O)Nc2ccc(C#N)cc2)c1` [Compound 221c, N-(4-cyanophenyl)-3-((4-fluorobenzyl)(methyl)amino)benzamide] displayed a melting point of 176 to 177 °C. In addition, in data set [3], the inhibition at 10 µM was 75%.
